ChEMBL document CHEMBL3046521, “Synthesis and antitumor activity of (4-hydroxyphenyl)[5-substituted alkyl/aryl)-2-thioxo-1,3,4-thiadiazol-3-yl]methanone and [(3,4-disubstituted)-1,3-thiazol-2ylidene]-4-hydroxybenzohydrazide” (2011)

How the values were obtained:
Format in all cases: functional
UO-31 = experiment: Cytotoxicity against Homo sapiens (human) UO31 cells after 48 hr by sulforhodamine B assay; details: UO-31, 48 h
Hs-578T = experiment: Cytotoxicity against Homo sapiens (human) Hs 578T cells after 48 hr by sulforhodamine B assay
HCC 2998 [1] = experiment: Anticancer activity in Homo sapiens (human) HCC2998 cells assessed as cell growth at 10^-5 M after 48 hr by SRB assay; details: HCC 2998, 48 h, read-out: Activity
OVCAR-3 = experiment: Cytotoxicity against Homo sapiens (human) OVCAR3 cells after 48 hr by sulforhodamine B assay; details: OVCAR-3, 48 h
IGROV-1 = experiment: Cytotoxicity against Homo sapiens (human) IGROV1 cells after 48 hr by sulforhodamine B assay; details: IGROV-1, 48 h
SK-OV-3 = experiment: Cytotoxicity against Homo sapiens (human) SKOV3 cells after 48 hr by sulforhodamine B assay; details: SK-OV-3, 48 h
U-251 = experiment: Cytotoxicity against Homo sapiens (human) U251 cells after 48 hr by sulforhodamine B assay; details: U-251, 48 h
A498 = experiment: Cytotoxicity against Homo sapiens (human) A498 cells after 48 hr by sulforhodamine B assay; details: A498, 48 h
HL-60(TB) = experiment: Cytotoxicity against Homo sapiens (human) HL-60(TB) cells after 48 hr by sulforhodamine B assay; details: HL-60, 48 h
COLO 205 = experiment: Cytotoxicity against Homo sapiens (human) COLO205 cells after 48 hr by sulforhodamine B assay; details: COLO 205, 48 h
RXF 393 = experiment: Cytotoxicity against Homo sapiens (human) RXF393 cells after 48 hr by sulforhodamine B assay; details: RXF 393, 48 h
NCI-H522 = experiment: Cytotoxicity against Homo sapiens (human) NCI-H522 cells after 48 hr by sulforhodamine B assay; details: NCI-H522, 48 h
T47D = experiment: Cytotoxicity against Homo sapiens (human) T47D cells after 48 hr by sulforhodamine B assay
K562 = experiment: Cytotoxicity against Homo sapiens (human) K562 cells after 48 hr by sulforhodamine B assay; details: K562, 48 h
SK-MEL-5 = experiment: Cytotoxicity against Homo sapiens (human) SK-MEL-5 cells after 48 hr by sulforhodamine B assay; details: SK-MEL-5, 48 h
NCI-H226 = experiment: Cytotoxicity against Homo sapiens (human) NCI-H226 cells after 48 hr by sulforhodamine B assay; details: NCI-H226, 48 h
CCRF-CEM = experiment: Cytotoxicity against Homo sapiens (human) CCRF-CEM cells after 48 hr by sulforhodamine B assay
DU-145 = experiment: Cytotoxicity against Homo sapiens (human) DU145 cells after 48 hr by sulforhodamine B assay; details: DU-145, 48 h
SN12C = experiment: Cytotoxicity against Homo sapiens (human) SN12C cells after 48 hr by sulforhodamine B assay
NCI-H460 = experiment: Cytotoxicity against Homo sapiens (human) NCI-H460 cells after 48 hr by sulforhodamine B assay; details: NCI-H460, 48 h
MDA-MB-468 = experiment: Cytotoxicity against Homo sapiens (human) MDA-MB-468 cells after 48 hr by sulforhodamine B assay; details: MDA-MB-468, 48 h
SNB-75 = experiment: Cytotoxicity against Homo sapiens (human) SNB75 cells after 48 hr by sulforhodamine B assay; details: SNB-75, 48 h
SK-MEL-2 = experiment: Cytotoxicity against Homo sapiens (human) SK-MEL-2 cells after 48 hr by sulforhodamine B assay; details: SK-MEL-2, 48 h
Malme-3M = experiment: Cytotoxicity against Homo sapiens (human) MALME-3M cells after 48 hr by sulforhodamine B assay
MDA-MB-231 = experiment: Cytotoxicity against Homo sapiens (human) MDA-MB-231 cells after 48 hr by sulforhodamine B assay; details: MDA-MB-231, 48 h
HOP-62 = experiment: Cytotoxicity against Homo sapiens (human) HOP62 cells after 48 hr by sulforhodamine B assay; details: HOP-62, 48 h
ACHN = experiment: Cytotoxicity against Homo sapiens (human) ACHN cells after 48 hr by sulforhodamine B assay
HCC 2998 [2] = experiment: Cytotoxicity against Homo sapiens (human) HCC2998 cells after 48 hr by sulforhodamine B assay; details: HCC 2998, 48 h
NCI-H23 = experiment: Cytotoxicity against Homo sapiens (human) NCI-H23 cells after 48 hr by sulforhodamine B assay; details: NCI-H23, 48 h
OVCAR-5 = experiment: Cytotoxicity against Homo sapiens (human) OVCAR5 cells after 48 hr by sulforhodamine B assay; details: OVCAR-5, 48 h
[3] = read-out: pLC50 (the source's name) (converted)

O=C(c1ccc(O)cc1)n1nc(-c2c(Cl)cccc2Cl)sc1=S
GI50 (UO-31): 9.33 µM
LC50 (UO-31): > 100 µM
TGI (UO-31; read-out: pTGI): > 100 µM
GI50 (Hs-578T): 29.5 µM
LC50 (Hs-578T): > 100 µM
TGI (Hs-578T; read-out: pTGI (converted)): 89.1 µM
growth at 10 µM (HCC 2998 [1]): 17.1%
GI50 (OVCAR-3): 6.17 µM
LC50 (OVCAR-3): 67.6 µM
TGI (OVCAR-3; read-out: pTGI (converted)): 28.8 µM
GI50 (IGROV-1): 12.9 µM
LC50 (IGROV-1): > 100 µM
TGI (IGROV-1; read-out: pTGI (converted)): 89.1 µM
GI50 (SK-OV-3): 17.4 µM
LC50 (SK-OV-3): > 100 µM
TGI (SK-OV-3; read-out: pTGI (converted)): 44.7 µM
GI50 (U-251): 11.5 µM
LC50 (U-251): 91.2 µM
TGI (U-251; read-out: pTGI (converted)): 32.4 µM
GI50 (A498): 2.34 µM
CC50 (A498; [3]): 53.7 µM
TGI (A498; read-out: pTGI (converted)): 17 µM
GI50 (HL-60(TB)): 2 µM
CC50 (HL-60(TB); [3]): > 100 µM
TGI (HL-60(TB); read-out: pTGI (converted)): 30.9 µM
GI50 (COLO 205): 13.5 µM
LC50 (COLO 205): 64.6 µM
TGI (COLO 205; read-out: pTGI (converted)): 29.5 µM
GI50 (RXF 393): 17.4 µM
LC50 (RXF 393): > 100 µM
TGI (RXF 393; read-out: pTGI (converted)): 51.3 µM
GI50 (NCI-H522): 11.7 µM
LC50 (NCI-H522): > 100 µM
TGI (NCI-H522; read-out: pTGI (converted)): 41.7 µM
GI50 (T47D): 3.89 µM
LC50 (T47D): > 100 µM
TGI (T47D; read-out: pTGI (converted)): 32.4 µM
GI50 (K562): 3.39 µM
LC50 (K562): > 100 µM
TGI (K562; read-out: pTGI (converted)): 28.8 µM
GI50 (SK-MEL-5): 10.7 µM
LC50 (SK-MEL-5): 56.2 µM
TGI (SK-MEL-5; read-out: pTGI (converted)): 24.5 µM
GI50 (NCI-H226): 12.9 µM
LC50 (NCI-H226): > 100 µM
TGI (NCI-H226; read-out: pTGI (converted)): 57.5 µM
GI50 (CCRF-CEM): 9.55 µM
LC50 (CCRF-CEM): > 100 µM
TGI (CCRF-CEM; read-out: pTGI): > 100 µM
GI50 (DU-145): 5.89 µM
LC50 (DU-145): 79.4 µM
TGI (DU-145; read-out: pTGI (converted)): 29.5 µM
GI50 (SN12C): 11.2 µM
LC50 (SN12C): > 100 µM
TGI (SN12C; read-out: pTGI (converted)): 46.8 µM
GI50 (NCI-H460): 9.33 µM
LC50 (NCI-H460): 75.9 µM
TGI (NCI-H460; read-out: pTGI (converted)): 26.3 µM
GI50 (MDA-MB-468): 8.71 µM
LC50 (MDA-MB-468): > 100 µM
TGI (MDA-MB-468; read-out: pTGI (converted)): 91.2 µM
GI50 (SNB-75): 16.6 µM
LC50 (SNB-75): > 100 µM
TGI (SNB-75; read-out: pTGI (converted)): 50.1 µM
GI50 (SK-MEL-2): 14.5 µM
LC50 (SK-MEL-2): 95.5 µM
TGI (SK-MEL-2; read-out: pTGI (converted)): 37.2 µM
GI50 (Malme-3M): 29.5 µM
LC50 (Malme-3M): > 100 µM
TGI (Malme-3M; read-out: pTGI (converted)): 49 µM
GI50 (MDA-MB-231): 13.2 µM
LC50 (MDA-MB-231): > 100 µM
TGI (MDA-MB-231; read-out: pTGI (converted)): 60.3 µM
GI50 (HOP-62): 18.6 µM
LC50 (HOP-62): > 100 µM
TGI (HOP-62; read-out: pTGI (converted)): 43.7 µM
GI50 (ACHN): 7.76 µM
LC50 (ACHN): > 100 µM
TGI (ACHN; read-out: pTGI (converted)): 41.7 µM
GI50 (HCC 2998 [2]): 4.9 µM
LC50 (HCC 2998 [2]): > 100 µM
TGI (HCC 2998 [2]; read-out: pTGI (converted)): 28.8 µM
GI50 (NCI-H23): 12.6 µM
LC50 (NCI-H23): > 100 µM
TGI (NCI-H23; read-out: pTGI (converted)): 53.7 µM
GI50 (OVCAR-5): 19.5 µM
LC50 (OVCAR-5): > 100 µM
TGI (OVCAR-5; read-out: pTGI (converted)): 61.7 µM
